# Test results reported in PubChem BioAssay AID2060619 (Molecular Pharmacology Branch, DTP, NCI, 2025).
# Test system: 323965-272-R-J2-PDC complex spheroid viability
# Assay: Anticancer human tumor 323965-272-R-J2-PDC patient-derived pancreatic carcinoma cell line growth inhibition [CLK]
# Conditions: for IC50: curve of first compound; for viability, T/C: stronger effect = lower value
# Method in brief: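 Patient-derived tumor cells grown as complex spheroids with HUVEC endothelial cells and mesenchymal stem cells, treated with drug combinations. Concentrations descend in half-log steps from near clinical Cmax, or from 10 microM if Cmax unknown.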
# [1] = second compound 0.0316 µM, first compound 0.0316 µM
# [2] = second compound 0.0316 µM, first compound 0.1 µM
# [3] = second compound 0.1 µM, first compound 0.0316 µM
# [4] = second compound 0.1 µM, first compound 0.1 µM
# [5] = second compound 0.316 µM, first compound 0.0316 µM
# [6] = second compound 0.316 µM, first compound 0.1 µM
# [7] = second compound 1 µM, first compound 0.0316 µM
# [8] = second compound 1 µM, first compound 0.1 µM
# [9] = second compound 3.16 µM, first compound 0.0316 µM
# [10] = second compound 3.16 µM, first compound 0.1 µM
# [11] = second compound 10 µM, first compound 0.0316 µM
# [12] = second compound 10 µM, first compound 0.1 µM
# [13] = second compound 0.0316 µM, first compound 0.316 µM
# [14] = second compound 0.0316 µM, first compound 1 µM
# [15] = second compound 0.0316 µM, first compound 3.16 µM
# [16] = second compound 0.0316 µM, first compound 10 µM
# [17] = second compound 0.1 µM, first compound 0.316 µM
# [18] = second compound 0.1 µM, first compound 1 µM
# [19] = second compound 0.1 µM, first compound 3.16 µM
# [20] = second compound 0.1 µM, first compound 10 µM
# [21] = second compound 0.316 µM, first compound 0.316 µM
# [22] = second compound 0.316 µM, first compound 1 µM
# [23] = second compound 0.316 µM, first compound 3.16 µM
# [24] = second compound 0.316 µM, first compound 10 µM
# [25] = second compound 1 µM, first compound 0.316 µM
# [26] = second compound 1 µM, first compound 1 µM
# [27] = second compound 1 µM, first compound 3.16 µM
# [28] = second compound 1 µM, first compound 10 µM
# [29] = second compound 3.16 µM, first compound 0.316 µM
# [30] = second compound 3.16 µM, first compound 1 µM
# [31] = second compound 3.16 µM, first compound 3.16 µM
# [32] = second compound 3.16 µM, first compound 10 µM
# [33] = second compound 10 µM, first compound 0.316 µM
# [34] = second compound 10 µM, first compound 1 µM
# [35] = second compound 10 µM, first compound 3.16 µM
# [36] = second compound 10 µM, first compound 10 µM
# 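Further: spheroids exposed to agents for seven days before readout.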
# 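Wherever viability, T/C is given: percent of DMSO vehicle control wells so 100% = untreated growth.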
structure (smiles),measurement,setting,value
Cn1ncnc1[C@H]1c2n[nH]c(=O)c3cc(F)cc(c23)N[C@@H]1c1ccc(F)cc1 + CN1CCN(c2cc(C(=O)Nc3cc4cc(-c5cnn(C)c5)ccc4cn3)ccn2)CC1,IC50,second compound 0.0316 µM,> 100 nM
same,IC50,second compound 0.1 µM,> 100 nM
same,IC50,second compound 0.316 µM,< 0.316 nM
same,IC50,second compound 1 µM,< 0.316 nM
same,IC50,second compound 3.16 µM,< 0.316 nM
same,IC50,second compound 10 µM,< 0.316 nM
same,"viability, T/C","second compound 0.0316 µM, first compound 0.000316 µM",96.1%
same,"viability, T/C","second compound 0.0316 µM, first compound 0.001 µM",96%
same,"viability, T/C","second compound 0.0316 µM, first compound 0.00316 µM",90%
same,"viability, T/C","second compound 0.0316 µM, first compound 0.01 µM",93.3%
same,"viability, T/C",[1],97%
same,"viability, T/C",[2],68.3%
same,"viability, T/C","second compound 0.1 µM, first compound 0.000316 µM",67.6%
same,"viability, T/C","second compound 0.1 µM, first compound 0.001 µM",65.7%
same,"viability, T/C","second compound 0.1 µM, first compound 0.00316 µM",61.6%
same,"viability, T/C","second compound 0.1 µM, first compound 0.01 µM",74%
same,"viability, T/C",[3],61.1%
same,"viability, T/C",[4],46.1%
same,"viability, T/C","second compound 0.316 µM, first compound 0.000316 µM",23.8%
same,"viability, T/C","second compound 0.316 µM, first compound 0.001 µM",26.9%
same,"viability, T/C","second compound 0.316 µM, first compound 0.00316 µM",23%
same,"viability, T/C","second compound 0.316 µM, first compound 0.01 µM",27.9%
same,"viability, T/C",[5],24.6%
same,"viability, T/C",[6],21.8%
same,"viability, T/C","second compound 1 µM, first compound 0.000316 µM",2.64%
same,"viability, T/C","second compound 1 µM, first compound 0.001 µM",3.21%
same,"viability, T/C","second compound 1 µM, first compound 0.00316 µM",3.5%
same,"viability, T/C","second compound 1 µM, first compound 0.01 µM",2.88%
same,"viability, T/C",[7],5.47%
same,"viability, T/C",[8],3.21%
same,"viability, T/C","second compound 3.16 µM, first compound 0.000316 µM",4.62%
same,"viability, T/C","second compound 3.16 µM, first compound 0.001 µM",3.78%
same,"viability, T/C","second compound 3.16 µM, first compound 0.00316 µM",5.87%
same,"viability, T/C","second compound 3.16 µM, first compound 0.01 µM",3.77%
same,"viability, T/C",[9],4.01%
same,"viability, T/C",[10],4.38%
same,"viability, T/C","second compound 10 µM, first compound 0.000316 µM",4.34%
same,"viability, T/C","second compound 10 µM, first compound 0.001 µM",4.75%
same,"viability, T/C","second compound 10 µM, first compound 0.00316 µM",6.41%
same,"viability, T/C","second compound 10 µM, first compound 0.01 µM",4.13%
same,"viability, T/C",[11],4.28%
same,"viability, T/C",[12],4.85%
Nc1ccn(C2OC(CO)C(O)C2(F)F)c(=O)n1 (stereo unspecified) + CN1CCN(c2cc(C(=O)Nc3cc4cc(-c5cnn(C)c5)ccc4cn3)ccn2)CC1,IC50,second compound 0.0316 µM,< 31.6 nM
same,IC50,second compound 0.1 µM,< 31.6 nM
same,IC50,second compound 0.316 µM,< 31.6 nM
same,IC50,second compound 1 µM,< 31.6 nM
same,IC50,second compound 3.16 µM,< 31.6 nM
same,IC50,second compound 10 µM,< 31.6 nM
same,"viability, T/C",[1],35.2%
same,"viability, T/C",[2],30.6%
same,"viability, T/C",[13],33.9%
same,"viability, T/C",[14],36.6%
same,"viability, T/C",[15],25.3%
same,"viability, T/C",[16],24.8%
same,"viability, T/C",[3],31.1%
same,"viability, T/C",[4],29.9%
same,"viability, T/C",[17],28.6%
same,"viability, T/C",[18],23%
same,"viability, T/C",[19],20.9%
same,"viability, T/C",[20],19.5%
same,"viability, T/C",[5],18.4%
same,"viability, T/C",[6],20.2%
same,"viability, T/C",[21],16.6%
same,"viability, T/C",[22],19.8%
same,"viability, T/C",[23],15.2%
same,"viability, T/C",[24],13.6%
same,"viability, T/C",[7],2.74%
same,"viability, T/C",[8],3.71%
same,"viability, T/C",[25],5.04%
same,"viability, T/C",[26],3.41%
same,"viability, T/C",[27],3.52%
same,"viability, T/C",[28],1.82%
same,"viability, T/C",[9],3.79%
same,"viability, T/C",[10],4.62%
same,"viability, T/C",[29],5.76%
same,"viability, T/C",[30],4.04%
same,"viability, T/C",[31],4.01%
same,"viability, T/C",[32],6.04%
same,"viability, T/C",[11],3.95%
same,"viability, T/C",[12],5.3%
same,"viability, T/C",[33],4.73%
same,"viability, T/C",[34],4.61%
same,"viability, T/C",[35],5.93%
same,"viability, T/C",[36],4.49%
O=c1[nH]cc(F)c(=O)[nH]1 + CN1CCN(c2cc(C(=O)Nc3cc4cc(-c5cnn(C)c5)ccc4cn3)ccn2)CC1,IC50,second compound 0.0316 µM,7400 nM
same,IC50,second compound 0.1 µM,3150 nM
same,IC50,second compound 0.316 µM,< 31.6 nM
same,IC50,second compound 1 µM,< 31.6 nM
same,IC50,second compound 3.16 µM,< 31.6 nM
same,IC50,second compound 10 µM,< 31.6 nM
same,"viability, T/C",[1],99.5%
same,"viability, T/C",[2],96.8%
same,"viability, T/C",[13],99.3%
same,"viability, T/C",[14],85.8%
same,"viability, T/C",[15],63%
same,"viability, T/C",[16],45.4%
same,"viability, T/C",[3],62.8%
same,"viability, T/C",[4],85.4%
same,"viability, T/C",[17],73.5%
same,"viability, T/C",[18],67.4%
same,"viability, T/C",[19],50.2%
same,"viability, T/C",[20],36.7%
same,"viability, T/C",[5],26.1%
same,"viability, T/C",[6],27%
same,"viability, T/C",[21],26.6%
same,"viability, T/C",[22],25.2%
same,"viability, T/C",[23],24.5%
same,"viability, T/C",[24],22.6%
same,"viability, T/C",[7],3.34%
same,"viability, T/C",[8],2.81%
same,"viability, T/C",[25],3.78%
same,"viability, T/C",[26],3.65%
same,"viability, T/C",[27],4.75%
same,"viability, T/C",[28],3.29%
same,"viability, T/C",[9],4.71%
same,"viability, T/C",[10],4.34%
same,"viability, T/C",[29],4.13%
same,"viability, T/C",[30],4.08%
same,"viability, T/C",[31],6.26%
same,"viability, T/C",[32],5.19%
same,"viability, T/C",[11],3.98%
same,"viability, T/C",[12],3.73%
same,"viability, T/C",[33],3.94%
same,"viability, T/C",[34],4.27%
same,"viability, T/C",[35],7.34%
same,"viability, T/C",[36],3.84%
